# Results reported in patent publication US12419305B2, “Antimicrobial compositions” (Firmenich SA, priority 2018, dated 2025).
# Read-outs that look alike come from different tables or passages of the source.
# Experiments:
# [1] = system: E. coli ATCC 10536; experiment: BCT test (bacterial contact time), 45 s, log reduction / effect fraction; CI by Compusyn; type: cell-based, Escherichia coli; conditions: Escherichia coli, ATCC10536, 45 s, 45 s, in 20% EtOH
# Method in brief: (§1)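 Read-out: log CFU from turbidity (OD600) of serially diluted wells after 37° C, 180 rpm growth; log reduction relative to ethanol-only control. Cells at ~1×10^8/mL met ethanolic test compositions 1:1 for the listed contact time. CI from concentrations and effect fractions; <0.9 synergy, 0.9–1.0 additive, >1.0 antagonism.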
# [2] = system: S. haemolyticus 114126; experiment: BCT test (bacterial contact time), 120 s, log reduction / effect fraction; CI by Compusyn; type: cell-based; conditions: Staphylococcus haemolyticus, 114126, 2 min, contact 120 s, 25% EtOH
# Procedure: S. haemolyticus: Suspensions of the S. haemolyticus 114126 strain, isolated from skin, were prepared as follows: Stock cultures (stored at −80° C.) were thawed and sub-cultured onto TSA-TW80 agar plate media, and incubated at 37° C. for 24 h to obtain single colonies. Single colonies of the primary cultures were streaked onto fresh TSA-TW80 plates and incubated at 37° C. for 24 h to prepare secondary cultures. Single colonies of secondary cultures were picked and used to inoculate 50 mL of BHI-TW80 broth. The inoculated broth was incubated at 37° C. at 180 rpm for 18 h. Aliquots (0.5 ml) of the 18 h culture were inoculated into 50 ml of fresh BHI-TW80 broth, and incubated at 37° C. at 180 rpm for approximately 3 hours. When the OD 600 nm value of the broth reached 1-2, cells were harvested by centrifugation at 5000 rpm for 10 min, and then resuspended in fresh BHI-TW80 broth at a concentration of 1-5×10^8 CFU/mL. This suspension was used as the bacterial suspension for the BCT test.
# BCT Test: Test compositions at a range of concentrations (either combinations of more than one perfume ingredient, and comparative compositions comprising the single perfume ingredients) were prepared in ethanol. Five replicates of each test composition were added into 96-well microtiter plates (120 μl per well), with row B containing control compositions containing the ethanol solution alone. 120 μl of bacterial cell suspensions at a concentration of approximately 1×10^8 bacteria per mL (as prepared above) were added to each well of the microtiter plate. The bacterial suspensions were incubated with the test solutions for 45, 60, or 120 seconds. Following the incubation of the bacterial suspensions with the test solutions, serial dilutions of the bacterial suspensions were generated (three serial 1:10 dilutions, followed by 17 serial 1:2 dilutions), in multiwell microtiter plates.
# Each plate was sealed and incubated at 37° C. under agitation (180 rpm). After incubation, the turbidity of the wells (OD600 nm) was determined using a Tecan microplate reader. Turbid wells were regarded as positive growth, due to the presence of viable cells. The total number of viable cells (log CFU) for each sample was calculated. And the log reduction for each test composition at the final concentration (dose) was calculated against the control sample of the ethanol solution.
# Determination of Synergy via the Combination Index (CI): The CI was calculated using Compusyn software (ComboSyn, Inc., as created by Dr. Dorothy Chou in 2005), according to the manufacturer's instructions. The concentration of each test composition (combinations of more than one perfume ingredient, and comparative compositions comprising the single perfume ingredients used to generate the combination) and their corresponding effect fraction was entered, and the corresponding CI calculated.
# When the calculated CI values were less than 0.9, the combination of perfume ingredients was regarded as having synergistic effect. When the calculated CI was between 1.0 a 0.9, the combination of perfume ingredients was regarded as having an additive effect. When the calculated CI was greater than 1.0, the combination of perfume ingredients was regarded as having an antagonistic effect.
# [3] = system: Pseudomonas aeruginosa ATCC 15442; experiment: BCT test (bacterial contact time), 60 s, log reduction / effect fraction; CI by Compusyn; type: cell-based; conditions: Pseudomonas aeruginosa, ATCC15442, 1 min, BCT 60 s, in 25% EtOH
# Method in brief: as §1
# [4] = system: Salmonella enterica ATCC 10708; experiment: as above; type: cell-based; conditions: Salmonella enterica, ATCC10708, 1 min, BCT 60 s, in 25% EtOH
# Method in brief: as §1
# [5] = system: S. aureus ATCC 6538; experiment: as above; type: cell-based, Staphylococcus aureus; conditions: Staphylococcus aureus, ATCC6538, 1 min, in 25% EtOH
# Method in brief: as §1
structure (smiles),measurement,setting,value
"C=CCc1ccc(O)c(OC)c1 [Eugenol F, 2-Methoxy-4-(prop-2-en-1-yl)phenol]",log reduction at 0.075 % strength,[1]; dose 0.075 % w/v,0
same,log reduction at 0.09 % strength,[1]; dose 0.090 % w/v,0.3
same,log reduction at 0.1 % strength,"[1]; dose 0.100 % w/v, read-out: Log reduction",0.9
same,log reduction at 0.125 % strength,[1]; dose 0.125 % w/v,2.5
same,log reduction at 0.15 % strength,[1]; dose 0.150 % w/v,7.4
same,log reduction at 0.2 % strength,[2]; dose 0.2% w/v,0.3
same,log reduction at 0.25 % strength,"[2]; dose 0.25% w/v, read-out: Log reduction",2.37
same,log reduction at 0.3 % strength,"[2]; dose 0.3% w/v, read-out: Log reduction",4.9
same,log reduction at 0.35 % strength,[2]; dose 0.35% w/v,7.6
same,log reduction at 0.12 % strength,[3]; Dose 0.12 % w/v,2.4
same,log reduction at 0.14 % strength,[3]; Dose 0.14 % w/v,3.8
same,log reduction at 0.15 % strength,[3]; Dose 0.15 % w/v,7.5
same,log reduction at 0.075 % strength,[4]; Dose 0.075 % w/v,1
same,log reduction at 0.1 % strength,"[4]; Dose 0.1 % w/v, read-out: Log reduction",2.4
same,log reduction at 0.1 % strength,"[4]; Dose 0.10 % w/v, read-out: Log reduction",2
same,log reduction at 0.125 % strength,[4]; Dose 0.125 % w/v,4.4
same,log reduction at 0.15 % strength,[4]; Dose 0.15 % w/v,7.8
same,log reduction at 0.1 % strength,"[5]; Dose 0.1 % w/v, BCT 60 s",0.8
same,log reduction at 0.125 % strength,"[5]; Dose 0.125 % w/v, BCT 60 s",1.6
same,log reduction at 0.15 % strength,"[5]; Dose 0.15 % w/v, BCT 60 s, read-out: Log reduction",2.3
same,log reduction at 0.175 % strength,"[5]; Dose 0.175 % w/v, BCT 60 s, read-out: Log reduction",5.5
same,log reduction at 0.1 % strength,"[5]; dose 0.100 % w/v, 60 s",0.7
same,log reduction at 0.125 % strength,"[5]; dose 0.125 % w/v, 60 s",1.5
same,log reduction at 0.13 % strength,"[5]; dose 0.13 % w/v, 60 s",1.6
same,log reduction at 0.15 % strength,"[5]; dose 0.150 % w/v, 60 s, read-out: Log reduction",2.2
same,log reduction at 0.175 % strength,"[5]; dose 0.175 % w/v, 60 s, read-out: Log reduction",4.6
same,log reduction at 0.2 % strength,"[5]; dose 0.200 % w/v, 60 s, read-out: Log reduction",6.9
CC(C)=CCC/C(C)=C/CO [Geraniol Pur],log reduction at 0.04 % strength,[1]; dose 0.040 % w/v,0.4
same,log reduction at 0.05 % strength,[1]; dose 0.050 % w/v,1.9
same,log reduction at 0.06 % strength,[1]; dose 0.060 % w/v,6.4
same,log reduction at 0.07 % strength,[1]; dose 0.070 % w/v,7.4
same,log reduction at 0.08 % strength,[1]; dose 0.080 % w/v,7.4
same,log reduction at 0.05 % strength,[2]; dose 0.05% w/v,-0.2
same,log reduction at 0.1 % strength,[2]; dose 0.1% w/v,2.7
same,log reduction at 0.125 % strength,[2]; dose 0.125% w/v,5.3
same,log reduction at 0.15 % strength,[2]; dose 0.15% w/v,7.1
same,log reduction at 0.03 % strength,[3]; Dose 0.03 % w/v,0.2
same,log reduction at 0.04 % strength,[3]; Dose 0.040 % w/v,1.4
same,log reduction at 0.05 % strength,[3]; Dose 0.05 % w/v,3.9
same,log reduction at 0.06 % strength,[3]; Dose 0.06 % w/v,5.9
same,log reduction at 0.08 % strength,[3]; Dose 0.08 % w/v,7.5
same,log reduction at 0.025 % strength,[4]; Dose 0.025 % w/v,0.2
same,log reduction at 0.03 % strength,[4]; Dose 0.03 % w/v,0.2
same,log reduction at 0.04 % strength,[4]; Dose 0.04 % w/v,2.4
same,log reduction at 0.045 % strength,[4]; Dose 0.045 % w/v,3.6
same,log reduction at 0.05 % strength,"[4]; Dose 0.05 % w/v, read-out: Log reduction",4.9
same,log reduction at 0.05 % strength,"[5]; dose 0.050 % w/v, 60 s",0.2
same,log reduction at 0.06 % strength,"[5]; dose 0.060 % w/v, 60 s",0.4
same,log reduction at 0.07 % strength,"[5]; dose 0.070 % w/v, 60 s",1.5
same,log reduction at 0.08 % strength,"[5]; dose 0.080 % w/v, 60 s",4
same,log reduction at 0.1 % strength,"[5]; dose 0.100 % w/v, 60 s",7.3
